The values that follow come from US10739353B2, “Suppression of cytokine release and cytokine storm” (SignPath Pharma Inc., priority 2014, dated 2020).

≈ marks a conversion by molar mass, not a printed value. Entries after “also recorded” stand apart in the source; their conditions may differ. Where two headings read alike, the source gives them in different places.

Series [1] in a line: Solubility in organic solvents. Type of series: physicochemical. An excerpt:
Comparison of PLGA C3-complex-curcumin vs PLGA S-curcumin indicated the following differences. The solubilities of 99.2% S-Curcumin in all four solvents. […] This confers improved manufacturing capability, and attributes to different pharmacokinetics and pharmacodynamics in in vivo settings (Table 3). [table]

For series [2] the following is noted: mice, cited from earlier work; for brain cytokine levels after TBI: cytokines named in value.
The subject of another series is Other Key Cytokines. The note with it: cited from earlier work.
The test system of series [3] is HIV-1, HIV-2, HSV, HPV, HTLV-1, HBV, HCV, and Japanese encephalitis virus. The note with it: cited from earlier work.
For another series, the system named is EBOV(Zaire). The series is described as follows: microbe, parasite or virus in culture. In kind it is cell-based. The note with it: Zaire ebolavirus, HeLa, 48 h, read-out: EC50 (anti-EBOV activity).
The test system of another series is IL-6, TNF-α and MCP-1. The note with it: streptozotocin rats; cited from earlier work.
In a further series the test system is H1N1 virus. The note with it: in culture; cited from earlier work.
The subject of the next series is SOCS proteins. The note with it: cited from earlier work.
Another series relates to cytokine release. The note with it: cited from earlier work.
The subject of another series is Interleukins. The note with it: cited from earlier work.
A further series concerns coxsackie virus. The note with it: Song et al; cited from earlier work.
Another series deals with QT interval. The note with it: cited from earlier work.
The conditions of series [4]: rats, cited from earlier work; for brain / tissue cytokine levels after TBI: cytokines named in value.
For another series, the system named is IL-1β and TNF-α. The note with it: intraperitoneal, 3 hours after injury; cited from earlier work.
For series [5] the following is noted: cited from earlier work; for clinical outcome in patients with TBI: patient trials.
The conditions of series [6]: randomized phase II trial, acute stroke, vs control group; cited from earlier work.
For series [7] the following is noted: rats; cited from earlier work.
The subject of series [8] is rat cerebellar granule cells. The note with it: toxic doses of glutamate (Bachis et al); cited from earlier work.
Where [9] appears, read: phase II trial, 20 patients with severe TBI (Helmy et al).

On to `COc1cc(/C=C/C(=O)CC(=O)/C=C/c2ccc(O)c(OC)c2)ccc1O` [Batch-C100609, diferuloylmethane], for which the “1 g of solvent solubilize in solvent” value in [1] (Acetone) came to 23.6 mL; in series [1] (Acetonitrile), 184 mL; in series [1] (Ethanol), 263 mL; in series [1] (Ethyl acetate) it was 96.2 mL. In addition, the “Conc.” value in [1] (Acetone) was determined as 42300 µg/mL; in series [1] (Acetonitrile) it was 5440 µg/mL; in series [1] (Ethanol), 3804 µg/mL; in series [1] (Ethyl acetate), 10400 µg/mL. In addition, the “Physical appearance of solubility” value in series [1] (Acetone) is “Fully”; in series [1] (Acetonitrile), “Partial”; in series [1] (Ethanol), “Partial”; in series [1] (Ethyl acetate), “Partial”. For the same molecule, the “solubility compared with C3 complex” value in series [1] (normalized to equal concentrations, Ethanol, Ethyl acetate, Acetone, Acetonitrile) is on record as “greater solubility”.
In the case of `CC(C(=O)O)c1ccc2c(c1)[nH]c1ccc(Cl)cc12` (centres unmarked) [Carprofen], in series [2], the “brain damage / neurological outcome after TBI” value is given as “improve neurological functioning”; the “brain cytokine levels after TBI” value was “markedly reduce IL-1β and IL-6”.
As for `COc1cc(C=CC(=O)CC(=O)C=Cc2ccc(O)c(OC)c2)ccc1O` [Curcumin, 1,7-bis(4-hydroxy-3-methoxyphenyl)-1,6-heptadiene-3,5-dione], in the series with Other Key Cytokines, the “Effect on GROα (CXCL1)” value is on record as “↓ GROα”, the “Effect on GROβ (CXCL2)” value is “↓ GROβ”, the “Effect on IP-10 (CXCL10)” value was “↓ IP-10” and the “Effect on Interferon γ” value is given as “↓ Interferon γ”. Moreover, in the series with Other Key Cytokines, the “Effect on MCP-1 (CCL2)” value was “↓ MCP-1”, the “Effect on MIP-1α (CCL3)” value is “↓ MIP-1α”, the “Effect on SDF-1 (CXCL12)” value was “↓ SDF-1” and the “Effect on TNF-α” value is recorded as “↓ TNF-α”. In addition, in [3], the activity against viruses entry is on record as “activity against numerous viruses”. Besides, the EC50 (commonly the concentration that produces a half-maximal response) with EBOV(Zaire) was determined as 6.5 ± 0.5 µg/mL (≈ 17.6 µM). For the same molecule, the “levels of IL-6, TNF-α and MCP-1” value in the series on IL-6, TNF-α and MCP-1 is “markedly reduced”. Also, the “activity against the H1N1 virus” value in the series on H1N1 virus is listed as “specific activity”. In addition, in the series with SOCS proteins, the “effect on SOCS proteins” value was “stimulate”. For the same molecule, the “release of IL-1” value in the series on cytokine release (bone marrow stromal cells, colonic epithelial cells and human articular chondrocytes) was “block the release”. The “release of IL-2, IL-12, Interferon-γ” value in the series with cytokine release was “prevents release”. Moreover, the “release of IL-8” value with cytokine release (human esophageal epithelial cells and alveolar epithelial cells) is recorded as “block the release”. In addition, the “IL-1β, IL-8, TNF-α, MCP-1 and MIP-1α release” value in the series on cytokine release (monocytes and macrophages (Abe et al)) is “suppresses”. Besides, the “release of IL-6, IL-8, TNF-α and MCP-1” value in the series with cytokine release (monocytes cultured in a high glucose environment (Jain et al)) is on record as “markedly reduced”. The “release of IL-6” value in the series on cytokine release (rheumatoid synovial fibroblasts) is “block the release”. In the series on Interleukins, the “Effect on IL-1” value is “↓ IL-1”, the “Effect on IL-2” value is “↓ IL-2”, the “Effect on IL-4” value is recorded as “↓ ↑ IL-4” and the “Effect on IL-5” value is on record as “↓ IL-5”. In the series with Interleukins, the “Effect on IL-6” value was “↓ IL-6”, the “Effect on IL-8” value is on record as “↓ IL-8”, the “Effect on IL-10” value is “↑ IL-10” and the “Effect on IL-11” value is “↓ IL-11”. Besides, in the series with Interleukins, the “Effect on IL-12” value is given as “↓ IL-12”, the “Effect on IL-13” value is recorded as “↓ IL-13” and the “Effect on IL-17” value is given as “↓ IL-17”. Moreover, in the series with coxsackie virus, the “coxsackie virus-induced myocardial damage” value is reported as “protected against coxsackie virus-induced severe myocardial damage”; the “expression of IL-1β, IL-6 and TNF-α and NF-κB” value was “reduced expression”.
As for `CCCCCCCCc1ccc(CCC(N)(CO)CO)cc1` [Fingolimod], the QT interval entry in the series with QT interval (patients with relapsing multiple sclerosis, through inhibition of the hERG current) is recorded as “causes QT prolongation”.
Take `Cc1cc(-c2ccccc2)nnc1N1CCN(c2ncccn2)CC1` [MW151]: in series [2], the “brain damage / neurological outcome after TBI” value is listed as “improvement in neurologic functioning” and the “brain cytokine levels after TBI” value is recorded as “restored abnormal cytokine levels to normal”.
Take `CC(C)[C@]12O[C@H]1[C@@H]1O[C@]13[C@]1(O[C@H]1C[C@H]1C4=C(CC[C@@]13C)C(=O)OC4)[C@@H]2O` [Triptolide]: in [4], the “brain damage / neurological outcome after TBI” value is listed as “reduce neuronal apoptosis”; the “brain / tissue cytokine levels after TBI” value was “suppress IL-1β, IL-6 and TNF-α, to increase IL-10 levels”.
With `CC(=O)[C@H]1CC[C@H]2[C@@H]3CCC4=CC(=O)CC[C@]4(C)[C@H]3CC[C@]12C` [progesterone], in the series on IL-1β and TNF-α, the “IL-1β and TNF-α” value was “reduce IL-1β and TNF-α”. The “favorable outcome on the Glasgow outcome scale” value in series [5] (SYNAPSE trial, 1195 patients with severe TBI) is recorded as 50.4%. In series [4], the “brain damage / neurological outcome after TBI” value was “improved motor skills, decreased cerebral edema and decreased mortality; also recorded: reducing apoptosis of brain tissue; also recorded: better results on the Neurological Severity Score Test”; the “brain / tissue cytokine levels after TBI” value is “reduced brain levels of IL-6 at 24, 48 and 72 hours; also recorded: decreased levels of IL-1β, IL-6 and TNF-α in the brain; also recorded: reduced brain levels of TNF-α and NF-κB”.
For the molecule `CC(C)c1nc(N(C)S(C)(=O)=O)nc(-c2ccc(F)cc2)c1/C=C/[C@@H](O)C[C@@H](O)CC(=O)O` [rosuvastatin], the “plasma cytokine levels in patients with TBI” value in [5] (10 days of rosuvastatin, 19 patients vs 17 controls) is recorded as “dramatic decrease in plasma levels of TNF-α; also recorded: No effect was seen on IL-1β, IL-6 or IL-10”. Also, in series [5], the “clinical outcome in patients with TBI” value is reported as “reduction in amnesia time; also recorded: no difference in disability at 3 months; also recorded: improvement in disability scores”.
As for “IL-1RA: IL-1 receptor antagonist; human recombinant IL-1RA is a medication for rheumatoid arthritis”, the “clinical outcome in patients with TBI” value in [5] is given as “unable to conclude that IL-1RA administration resulted in therapeutic benefit”. Further, in series [5] (setting [9]), the “crossing of the blood-brain barrier” value is recorded as “does cross the blood-brain barrier” and the safety entry is reported as “safe”. Further, in series [4], the “brain damage / neurological outcome after TBI” value is reported as “No effect was seen at low doses; also recorded: decreased neuronal loss” and the “brain / tissue cytokine levels after TBI” value is “reduced tissue IL-1β levels”. Also, the “loss of cognitive function” value in [6] is given as “less loss of cognitive function”. Besides, the “brain damage / neurological outcome after TBI” value in [2] is reported as “reduced lesion volume”.
Consider “TSG-6: TNF-α stimulated gene/protein 6, an anti-inflammatory agent”, for which, in series [2], the “brain damage / neurological outcome after TBI” value was “decreased lesion size and improved neurological recovery”.
For etanercept, in series [5] (medical records of 617 patients with stroke and 12 with TBI, no control group (Tobinick et al)), the neurological function entry is “Marked improvement in neurological function”. Moreover, in [4], the “brain damage / neurological outcome after TBI” value was “reduced neuronal and glial apoptosis and microglial activation; also recorded: increased 5-bromodeoxyuridine and doublecortin markers in the injured brain”; the “brain / tissue cytokine levels after TBI” value is “reducing the increased levels of TNF-α”.
In the case of “tocilizumab: an IL-6 blocker; anti-IL-6 antibody”, the QT interval entry in the series with QT interval (patients with rheumatoid arthritis) is recorded as “shortening of the duration of the previously prolonged QT interval”.

B1: IL-10: the most important anti-inflammatory cytokine (protein, UniProt P22301 19-178, looked up)
Interleukin-10: SPGQGTQSENSCTHFPGNLPNMLRDLRDAFSRVKTFFQMKDQLDNLLLKESLLEDFKGYLGCQALSEMIQFYLEEVMPQAENQDPDIKAHVNSLGENLKTLRLRLRRCHRFLPCENKSKAVEQVKNAFNKLQEKGIYKAMSEFDIFINYIEAYMTMKIRN
On to B1, for which the “cytokines and recovery after spinal cord injury” value in [7] was “reduced TNF-α production and improved motor function”. Further, in series [4], the “brain damage / neurological outcome after TBI” value is “enhance neurological recovery; also recorded: Intracerebroventricular administration was not effective” and the “brain / tissue cytokine levels after TBI” value is “reduce synthesis of IL-1”. In series [8], the “caspase-3 and neuronal death” value was “blocks caspase-3 and reduces neuronal death”.
